The values that follow are results of earlier work, collected in patent publication US20160376245A1, “IMPURITY OF FAMOTIDINE” (GAVIS PHARMACEUTICALS, priority 2015, published 2016).

The structures appear in SMILES notation. Like-named read-outs stand apart in the source and are kept apart here.

For the molecule `NC(N)=Nc1nc(CSCCC(N)=NS(N)(=O)=O)cs1` [Famotidine, N-(aminosulfonyl)-3-[[[2-[(diaminomethylene)amino]-4-thiazolyl]methyl]thio] propanimidamide], the solubility result is “practically insoluble” (in ethanol), “freely soluble” (in glacial acetic acid), “slightly soluble” (in methanol) and “very slightly soluble” (in water).
